Patent publication US12090137B2, “Solid Δ9-tetrahydrocannabinol (Δ9-THC) compositions” (CANNA-C[…], priority 2020, dated 2024)

Experiment: Flowable powder formation by freeze-drying (lyophilization), Example 1
Assay type: physicochemical
Protocol: The powder former (amount based on 1:1, 1:2 or 1:4 molar Δ^9-THC:powder former ratio) was dissolved in H2O (2 mL) and, if needed, dioxane (2 mL) was added to form a solution. The powder former solution was added to the Δ^9-THC solution in the round bottom flask. The round bottom flask was then submerged in a dry ice/acetone bath or liquid nitrogen to freeze the solution while continuously rotating the flask by hand to maximize surface area and form an even, thin layer around the flask. Once frozen, the round bottom flask was attached to a LabConco lyophilizer with an Edwards RV8 vacuum pump pre-equilibrated at ^˜−50° C. Samples were left overnight (18 hrs) and removed the next day.
Δ^9-THC and several powder formers were lyophilized using the described procedure to determine if a flowable powder would result.

SMILES: CCCCCc1cc(O)c2c(c1)OC(C)(C)[C@@H]1CCC(C)=C[C@@H]21 [Δ^9-THC, (−)-trans-Δ^9-tetrahydrocannabinol]
- Result of lyophilizing without a powder former (from dioxane alone): gel
- Result of lyophilizing without a powder former (from dioxane/water (~75/25 by volume)): tacky gel
